Each block holds one compound with its values, some of them ahead of it.
How the values were obtained:
[1] = system: antibody in the antiserum of rabbit immunized by the CPZ-BSA immunogen; assay: Radioimmunoassay specificity: inhibition of 3H-CPZ binding to antibody; settings: for concentration required to produce a 50% inhibition of 3H-chlorpromazine-antibody binding, relative to chlorpromazine: multiple of the CPZ concentration; for binding by the antibody (in words): competition with labeled CPZ
Description: The antiserum of EXAMPLE 2 as used for the radioimmunoassay was diluted with normal rabbit serum which was diluted with phosphate-buffered saline, pH 7.4, at 1:10 dilution. To determine the antibody titre of antiserum, 0.1 ml. of various dilutions of the antiserum was incubated in an assay tube (10 × 75 mm) with 320 pg of ^3 H-CPZ approximately 7,000 dpm, at 4°C. overnight. The volume was adjusted to 0.5 ml. with phosphate-buffered salie, pH 7.4 which is the optimal pH for the assay. The antibody bound CPZ was separated from free CPZ by the addition of saturated ammonium sulfate which was adjusted to pH 7.4 with ammonium hydroxide as described by Farr, J. Infect. Dis. 103, 239 (1958). After two washings with 50% saturated ammonium sulfate, the precipitate was dissolved in 0.5 ml. of water. The content of the tube was transferred to a counting vial and the tube was then washed four times with 3 ml. of Riaflour. The 12 ml. washings were all collected in the vial. The radioactivity was then counted with a Beckman liquid scintillation counter. Thedilution of the antiserum chosen for further studies were 1:7,000.
Appropriate volume of phosphate-buffered saline, pH 7.4 was added to all the tubes containing 0.1 ml. of the antiserum to make a final incubation volume of 0.5 ml. To the tubes were added various quantities ranging from 100 ng. to 10 pg. (10 1) of CPZ, its derivatives, serotonin and dopamine. After a 15 minute preincubation, 10 l. of ^3 H-CPZ was added. The tubes were then incubated overnight at 4°C. followed by precipitation with ammonium sulfate.
Background and non-specific protein binding of ^3 H-CPZ were determined by excluding the antiserum from the incubation mixture. The counts representing the non-specific binding were then subtracted from all samples.
The specificity of the antibody in the antiserum of rabbit immunized by the CPZ-BSA immunogen was determined by incubating the antiserum with a number of CPz derivatives or the biologenic amines in the presence of labeled CPZ. […] CPZ substituted at C6, C7, or C8 with hydroxy group was not bound by the antibody to the same extent as CPZ. In order to obtain a 50% inhibition of ^3 H-CPZ-antibody complex formation, these hydroxylated derivatives of CPZ required concentrations which were 5-10 times that of CPZ. […] The 7hydroxy derivatives of Nor1 -CPZ or Nor2 CPZ likewise were poorly bound by the antibody. Another metabolic product which can be formed from CPZ is CPZ-N-oxide. […] Promazine, the dechlorinated derivative required about 8 times the concentration of CPZ to produce a 50% displacement of the labeled CPZ from the antibody.

[2] = Disposition of CPZ in rats: brain level by radioimmunoassay; format: in vivo, Male Sprague-Dawley rats; settings: rat
[3] = Disposition of CPZ in rats: plasma level by radioimmunoassay; format: in vivo, Male Sprague-Dawley rats; settings: iv, rat, 10 mg/kg CPZ hydrochloride intravenously, after initial rapid decline
Description: To determine the plasma concentration of CPZ, aliquots of plasma from animals which received CPZ were diluted with normal rat plasma. To the assay tubes containing antiserum, phosphate-buffered saline, pH 7.4, ^3 H-CPZ and 10 l of unknown samples were added, and incubated at 4°C. overnight. Free CPZ was separated from the antibody bound CPZ by ammonium sulfate precipitation.
Male Sprague-Dawley rats weighing 210-240 g. were injected intravenously with 10 mg/kg of CPZ hydrochloride. In one group of 6 rats, 0.1 ml. of blood samples were taken from the tail into a heparinized capillary tube at varying time intervals following the injection. The plasma was separated by centrifugation and frozen until assayed. Other 48 rats were killed by decapitation at the same intervals as above, and the brain was removed, frozen on dry ice and then kept in a deep freezer at -80°C. until assayed.
The radioimmunoassay procedure of Example 3 was applied to the determination of CPZ and some minor metabolites in rat plasma and brain following intravenous administration of CPZ hydrochloride.

Structure (SMILES): CN(C)CCCN1c2ccc(O)cc2Sc2ccc(Cl)cc21 [7-hydroxychlorpromazine]
concentration required to produce a 50% inhibition of 3H-chlorpromazine-antibody binding, relative to chlorpromazine [1]: 5-10 times

Structure (SMILES): CN(C)CCCN1c2ccccc2Sc2ccc(Cl)cc21 [CPZ, Chlorpromazine]
time to peak brain level of CPZ and metabolites ([2]; 10 mg/kg CPZ hydrochloride intravenously): Five | persistence of peak brain level ([2]; in vivo, iv, 10 mg/kg): 30 min | concentration producing a 50% inhibition of binding of 3H-CPZ to the antibody ([1]; 320 pg 3H-CPZ, antiserum 1:7,000, 0.5 ml, pH 7.4, 4°C overnight): 118 pg | half-life [3]: ~4 h

Structure (SMILES): C[N+](C)([O-])CCCN1c2ccccc2Sc2ccc(Cl)cc21 [CPZ-N-oxide]
binding by the antibody (in words) [1]: not bound to the antibody to any appreciable extent

Structure (SMILES): CN(C)CCCN1c2ccccc2[S+]([O-])c2ccc(Cl)cc21 (stereo not drawn) [chlorpromazine sulfoxide]
binding by the antibody (in words) [1]: not bound significantly | binding by the antibody (in words) ([1]; listed as CPZ-sulfoxide): not recognized by the antibody unless the concentrations were high

Second part, led by results:

concentration required to produce a 50% inhibition of 3H-chlorpromazine-antibody binding, relative to chlorpromazine [1]: 5-10 times
Structure (SMILES): CN(C)CCCN1c2cc(O)ccc2Sc2ccc(Cl)cc21 [8-hydroxychlorpromazine]

binding by the antibody (in words) [1]: not bound significantly
Structure (SMILES): CNCCCN1c2ccccc2Sc2ccc(Cl)cc21 [nor1 -chlorpromazine]
binding by the antibody (in words) ([1]; listed as Nor1 -CPZ): bound by the antibody to a much lesser extent

binding by the antibody (in words) [1]: not bound significantly
Structure (SMILES): NCCCN1c2ccccc2Sc2ccc(Cl)cc21 [nor2 -chlorpromazine]
binding by the antibody (in words) ([1]; listed as Nor2 -CPZ): failed to recognize the compound unless the concentrations were extremely high

concentration required to produce a 50% inhibition of 3H-chlorpromazine-antibody binding, relative to chlorpromazine [1]: 5-10 times | concentration required to produce a 50% inhibition of 3H-chlorpromazine-antibody binding, relative to chlorpromazine ([1]; listed as Promazine): about 8 times
Structure (SMILES): CN(C)CCCN1c2ccccc2Sc2ccccc21 [promazine]

Source: US3976763A, “Chlorpromazine assay” (Hoffmann-La Roche Inc., priority 1975, dated 1976)
